Experimental data taken from PubChem BioAssay (NCI).
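Protocol summary: plate cells (96-well), add compound at 5 concentrations, incubate 48 h, interpolate endpoints linearly. GI50: concentration for 50% inhibition of growth. At the TGI there is no net growth.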

Experiments:
Experiment in all cases: NCI tumour cell line growth inhibition, 48 h
SK-MEL-28 melanoma = tested on: SK-MEL-28 melanoma
NCI-H460 lung = tested on: NCI-H460 lung
EKVX NSCLC = tested on: EKVX NSCLC
K-562 leukemia = tested on: K-562 leukemia
786-0 renal = tested on: 786-0 renal
SF-268 CNS = tested on: SF-268 CNS
CAKI-1 renal = tested on: CAKI-1 renal
HOP-62 NSCLC = tested on: HOP-62 NSCLC
COLO 205 colon = tested on: COLO 205 colon
OVCAR-3 ovarian = tested on: OVCAR-3 ovarian

| Compound | TGI (SK-MEL-28 melanoma) [µM] | TGI (NCI-H460 lung) [µM] | TGI (EKVX NSCLC) [µM] | TGI (K-562 leukemia) [µM] | TGI (786-0 renal) [µM] | TGI (SF-268 CNS) [µM] | TGI (CAKI-1 renal) [µM] | TGI (HOP-62 NSCLC) [µM] | GI50 (SK-MEL-28 melanoma) [µM] | GI50 (NCI-H460 lung) [µM] | GI50 (COLO 205 colon) [µM] | TGI (COLO 205 colon) [µM] | GI50 (K-562 leukemia) [µM] | GI50 (786-0 renal) [µM] | GI50 (SF-268 CNS) [µM] | GI50 (OVCAR-3 ovarian) [µM] | TGI (OVCAR-3 ovarian) [µM] | GI50 (CAKI-1 renal) [µM] | GI50 (HOP-62 NSCLC) [µM] | GI50 (EKVX NSCLC) [µM] |
| --- | --- | --- | --- | --- | --- | --- | --- | --- | --- | --- | --- | --- | --- | --- | --- | --- | --- | --- | --- | --- |
| CCCCCCCCCCCCNC(=S)OCCCC | > 100 | > 100 | > 100 | > 100 | > 100 | > 100 | > 100 | > 100 |  |  |  |  |  |  |  |  |  |  |  |  |
| CCCCCCCCCCCCNCCCc1ccccc1 | 3.23 | 3.4 |  | 4.54 | 3.33 | 3.85 | 3.44 | 3.7 | 1.72 | 1.83 | 1.87 | 3.43 | 1.89 | 1.8 | 1.87 | 1.79 | 3.18 | 1.79 | 2.07 |  |
| O=C(Nc1cccc2[nH]c(C(F)(F)F)nc12)c1ccc(Br)cc1F | 16.4 | 12.4 |  | 39.2 | 15.1 | 21.4 | 15.7 | 8.88 | 4.76 | 3.45 | 2.63 | 6.33 | 3.37 | 4.05 | 4.17 | 3.62 | 16.8 | 2.89 | 2.43 |  |
| Cc1ccccc1-c1cc(=O)c2cc(C)c(C)c(C(=O)O)c2o1 | > 100 | > 100 | > 100 | > 100 | > 100 |  | > 100 | > 100 |  |  |  | > 100 |  |  |  |  | > 100 |  |  |  |
| COc1ccc(C2=NC(CO)[C@H](c3ccccc3)O2)cc1OC (some centres undefined) |  | > 100 |  | > 100 | > 100 | > 100 | > 100 | > 100 |  |  |  | > 100 |  |  |  |  | > 100 |  |  |  |
| CC(C)(C)c1ccc(OCCCCCCCN2CCNCC2)cc1 |  | 3.47 | 12.7 | 3.81 | 3.07 | 6.65 | 2.81 | 2.92 |  | 1.83 | 1.49 | 3.24 | 1.56 | 1.63 | 2.36 | 1.63 | 3.12 | 1.46 | 1.3 | 3.04 |
| NC(=O)c1c(-c2ccccc2)c(-c2ccccc2)cc2c(=O)c3ccccc3[nH]c12 | 37.6 | 76.8 | > 100 | > 100 | 21.5 | > 100 |  | 58.5 |  |  |  | > 100 |  |  |  |  | 46.4 |  |  |  |
| O=C1C=C(c2ccccc2)NC1(c1ccccc1)c1cc(-c2ccccc2)[nH]c1-c1ccccc1 (centres undefined) | > 100 | > 100 | > 100 | > 100 | > 100 |  | > 100 | 19 |  |  |  | > 100 |  |  |  |  | > 100 |  |  |  |
| CCOC(=O)CCC(NC(=O)c1ccc(Oc2nc3cc(N)cc(N)c3nc2-c2ccccc2)cc1)C(=O)OCC (centres undefined) | 30.5 | > 100 | > 100 |  | > 100 | > 100 | > 100 | 87.1 | 14.3 | 96.2 | 29.9 | > 100 |  | 89 | 40.7 | 16.2 | 41.2 | 49.5 | 36.6 | 62 |
| COc1cc(Br)c(C=Nc2cccc3ccc(OS(=O)(=O)c4ccc([N+](=O)[O-])cc4)cc23)cc1OC | > 100 | > 100 | > 100 |  | > 100 | > 100 | > 100 | > 100 |  |  |  | > 100 |  |  |  |  | > 100 |  |  |  |
| O=[N+]([O-])c1cc2c(ccc3ccccc32)o1 | 0.585 | 1.06 |  | 9.01 | 3.63 | 9.73 | 3.06 | 4.92 | 0.21 | 0.276 | 0.268 | 1.04 | 0.376 | 0.72 | 0.455 | 1.31 | 4.64 | 0.31 | 1.31 |  |
| O=S(=O)(c1ccccc1)C1(C2(S(=O)(=O)c3ccccc3)CCN=N2)CCN=N1 (centres undefined) | > 100 | > 100 | > 100 | > 100 | > 100 | > 100 | > 100 |  |  |  |  | > 100 |  |  |  |  | > 100 |  |  |  |
| COc1cccc(C2=C(c3cn(C)c4c(C)cccc34)C(=O)NC2=O)c1 | > 25 | > 25 |  | > 25 | > 25 | > 25 | > 25 | > 25 | > 25 | > 25 | > 25 | > 25 | 12.8 | 15.8 | > 25 | 16.5 | > 25 | > 14.1 | > 25 |  |
